Results: the CheMixHub ionic liquid set
“And” between values parts separate entries of the source, which are not always exact repeats. Equal entries are not always repeated.

Test: xn = mol fraction of the nth substance listed

CS(C)=O + CCCC[n+]1ccn(C)c1.F[B-](F)(F)F
100 kPa, x2 = 0
Conditions	electrical conductivity [S/m]	viscosity
298.15 K	0.042	1.99 mPa·s and 2.012 mPa·s
303.15 K	–	1.8 mPa·s
308.15 K	–	1.65 mPa·s
313.15 K	–	1.54 mPa·s

CCCCCCCCCCCCCC[P+](CCCCCC)(CCCCCC)CCCCCC.N#Cc1ccc[n-]1 + CCCCCC[n+]1ccn(C)c1C.O=S(=O)([N-]S(=O)(=O)C(F)(F)F)C(F)(F)F
100 kPa
Conditions	viscosity [mPa·s]
278.15 K, x2 = 0.799	900
283.15 K, x2 = 0.601	900
288.15 K, x2 = 0	800
288.15 K, x2 = 0.098	870
288.15 K, x2 = 0.301	760

CCCC[P+](CC)(CC)CC.Cc1ncc([N+](=O)[O-])[n-]1 + COCCOCCOCCOCCOC
100 kPa
Conditions	viscosity [mPa·s]
278.15 K, x2 = 0.048	1540
283.15 K, x2 = 0.102	631
283.15 K, x2 = 0.401	99
283.15 K, x2 = 0.501	57
298.15 K, x2 = 0.102	208
298.15 K, x2 = 0.201	130
308.15 K, x2 = 0.048	159
313.15 K, x2 = 0.102	90

CCCC[n+]1ccn(C)c1.[Br-] + C[NH2+]CCC=C1c2ccccc2CCc2ccccc21.[Cl-] + O
viscosity [mPa·s], 100 kPa
Conditions	288.15 K	298.15 K	308.15 K	318.15 K
x2 = 0, x1 = 0.0001802	1.149	0.916	0.751	0.634
x2 = 0, x1 = 0.0007203	1.153	–	–	0.64
x2 = 0, x1 = 0.00126	1.159	0.93	0.763	0.646

N#CCCCCC#N + CCCC[n+]1ccn(C)c1.O=S(=O)([N-]S(=O)(=O)C(F)(F)F)C(F)(F)F
Conditions	electrical conductivity [S/m]
294.5 K, 100 kPa, x2 = 0.02785	0.29

CCCC[N+](CCCC)(CCCC)CCCC.[Cl-] + NCCCO
viscosity [mPa·s], 101.3 kPa
Conditions	293.15 K	298.15 K	303.15 K	308.15 K	313.15 K	318.15 K	323.15 K	328.15 K	333.15 K
x2 = 0.8	101.4	77.4	57.8	44.6	36.2	28.9	23.4	19.4	16.1
x2 = 0.8571	70.7	53.9	41.7	32.8	26	21.1	17.3	14.2	12
x2 = 0.8889	60.2	46.1	35.7	28	22.5	18.3	15	12.5	10.7

CC[n+]1ccn(C)c1.[Cl-] + O
viscosity [mPa·s], 100 kPa
Conditions	278.15 K	283.15 K	288.15 K	293.15 K	298.15 K	303.15 K	308.15 K	313.15 K	373 K
x1 = 9.063e-05	1.528	1.312	1.141	1.004	0.892	0.799	0.72	0.653	–
x1 = 0.0001805	1.531	1.314	1.144	1.006	0.894	0.8	0.721	0.654	–
x1 = 0.0003599	1.533	1.317	1.148	1.008	0.896	0.802	0.723	0.655	–
x1 = 0.0005394	1.538	1.321	1.15	1.011	0.898	0.804	0.724	0.656	–
x1 = 0.0007199	1.541	1.323	1.152	1.013	0.899	0.805	0.725	0.658	–
x1 = 0.0008996	1.545	1.327	1.156	1.015	0.902	0.807	0.728	0.659	–
x1 = 0.001079	1.547	1.329	1.158	1.018	0.904	0.809	0.729	0.661	–
x1 = 0.001351	1.554	1.335	1.163	1.023	0.908	0.813	0.732	0.664	–
x1 = 0.001799	1.563	1.344	1.17	1.029	0.914	0.817	0.736	0.667	–
x1 = 0.87	–	–	–	–	–	–	–	–	23
x1 = 0.9302	–	–	–	–	–	–	–	–	24
x1 = 0.9756	–	–	–	–	–	–	–	–	32
x1 = 1	–	–	–	–	–	–	–	–	36

CC[n+]1ccn(C)c1.[Cl-] + OCCOCCOCCOCCO
viscosity [mPa·s], 101.3 kPa
Conditions	298.15 K	303.15 K	313.15 K	323.15 K	333.15 K
x2 = 0.3333	360	266	168	115	83
x2 = 0.5	138	114	83.8	62.7	48.7

CC[n+]1ccn(C)c1.[Cl-] + CC#N
Conditions	viscosity [mPa·s]
373 K, 100 kPa, x2 = 0.284	12
